Patent US10787462B2, “Heterocyclic compound” (TAKEDA PHARMACEUTICAL COMPANY LIMITED, priority 2015, dated 2020)

Target: T1, human RIPK1 (1-375) (Homo sapiens, UniProt Q13546)
T1 construct: human RIPK1 (1-375) gene; GST; made in house; host or cells: Sf-9 insect cells
T1 sequence (Q13546 1-375): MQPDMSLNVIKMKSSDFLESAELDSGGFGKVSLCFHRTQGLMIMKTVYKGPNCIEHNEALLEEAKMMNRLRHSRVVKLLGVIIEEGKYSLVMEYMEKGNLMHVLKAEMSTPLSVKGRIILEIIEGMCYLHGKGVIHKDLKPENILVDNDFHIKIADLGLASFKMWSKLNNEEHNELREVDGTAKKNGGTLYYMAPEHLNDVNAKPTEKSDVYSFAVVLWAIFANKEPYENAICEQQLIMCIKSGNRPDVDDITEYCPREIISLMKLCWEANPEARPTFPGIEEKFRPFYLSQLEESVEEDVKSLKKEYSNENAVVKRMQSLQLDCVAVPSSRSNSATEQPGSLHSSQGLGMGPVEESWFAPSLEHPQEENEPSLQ
Test: Human RIPK1 enzyme inhibitory effect (ADP-Glo Kinase Assay)
Format: biochemical
Settings: well without enzyme = 100% inhibition; for inhibition at 10 µM: read-out: human RIPK1 enzyme inhibitory effect at 10 μM (% inhibition), 10 μM test compound; for human RIPK1 enzyme inhibitory effect at 10 μM (% inhibition): 10 μM test compound
Experimental: Experimental Example 1: Human RIPK1 Enzyme Inhibitory Effect
Enzyme was prepared by transducing human RIPK1 (1-375) gene to Sf-9 insect cells, and purifying using GST affinity column, and enzyme activity evaluation was performed using the enzyme. The enzyme was used after preservation at −70° C. The RIPK1 enzyme inhibitory activity of the test compound was measured using ADP-Glo™ Kinase Assay (Promega) according the following experiment methods. The test compound diluted with assay buffer (25 mM HEPES (pH 7.5), 10 mM MgCl2, 0.01% Tween-20, 2 mM DTT) was added to 384 well plate by each 2 μL. Next, RIPK1 enzyme solution diluted with the assay buffer was added thereto by each 2 μL, and the mixture was incubated at room temperature for 20 min. After the incubation, 0.6 mM ATP solution was added thereto by each 2 μL to initiate an enzyme reaction. The mixture was incubated at room temperature for 120 min, and ADP-Glo solution prepared according to Promega protocol was added to the 384 well plate by each 3 μL, and the reaction was performed at room temperature for 40 min. Then, Kinase-Detection solution was added to the 384 well plate by each 6 μL, and the reaction was performed at room temperature for 40 min. After the reaction, the luminescence intensity was measured by plate reader Envision (PerkinElmer).

SMILES	inhibition at 10 µM [%]	human RIPK1 enzyme inhibitory effect at 10 μM (% inhibition) [%]
CN1C(=O)[C@@H](N2CCc3c(nn(Cc4ccccc4)c3Cl)C2=O)COc2cc(C(=O)NC3COC3)ccc21 [Example 118, (3S)-3-(2-benzyl-3-chloro-7-oxo-2,4,5,7-tetrahydro-6H-pyrazolo[3,4-c]pyridin-6-yl)-5-methyl-N-(oxetan-3-yl)-4-oxo-2,3,4,5-tetrahydro-1,5-benzoxazepine-8-carboxamide]	98	–
CN1C(=O)[C@@H](N2CCc3cn(Cc4cccc(F)c4)nc3C2=O)COc2ccccc21 [Example 158, (3S)-3-(2-(3-fluorobenzyl)-7-oxo-2,4,5,7-tetrahydro-6H-pyrazolo[3,4-c]pyridin-6-yl)-5-methyl-2,3-dihydro-1,5-benzoxazepin-4(5H)-one]	99	–
CN1C(=O)[C@@H](N2CCc3c(nn(Cc4ccccc4)c3OC(F)F)C2=O)COc2cc(C#N)ccc21 [Example 124, (32)-3-(2-benzyl-3-(difluoromethoxy)-7-oxo-2,4,5,7-tetrahydro-6H-pyrazolo[3,4-c]pyridin-6-yl)-5-methyl-4-oxo-2,3,4,5-tetrahydro-1,5-benzoxazepine-8-carbonitrile]	98	–
CN1C(=O)[C@@H](N2CCc3c(nn(Cc4ccccc4)c3Cl)C2=O)COc2cc(C(=O)NCCOCCOCCOCCNC(=O)c3ccc4c(c3)OC[C@H](N3CCc5c(nn(Cc6ccccc6)c5Cl)C3=O)C(=O)N4C)ccc21 [Example 174, (3S)-3-(2-benzyl-3-chloro-7-oxo-2,4,5,7-tetrahydro-6H-pyrazolo[3,4-c]pyridin-6-yl)-N-(13-((3S)-3-(2-benzyl-3-chloro-7-oxo-2,4,5,7-tetrahydro-6H-pyrazolo[3,4-c]pyridin-6-yl)-5-methyl-4-oxo-2,3,4,5-tetrahydro-1,5-benzoxazepin-8-yl)-13-oxo-3,6,9-trioxa-12-azatridec-1-yl)-5-methyl-4-oxo-2,3,4,5-tetrahydro-1,5-benzoxazepine-8-carboxamide]	101	–
CN1C(=O)[C@@H](N2CCc3c(nn(Cc4ccccc4)c3OC(F)F)C2=O)COc2cc(Br)ccc21 [Example 123, (3S)-3-(2-benzyl-3-(difluoromethoxy)-7-oxo-2,4,5,7-tetrahydro-6H-pyrazolo[3,4-c]pyridin-6-yl)-8-bromo-5-methyl-2,3-dihydro-1,5-benzoxazepin-4(5H)-one]	98	–
CN1C(=O)[C@@H](N2CCc3c(nn(Cc4ccccc4)c3Cl)C2=O)COc2ccccc21 [Example 76, (3S)-3-(2-benzyl-3-chloro-7-oxo-2,4,5,7-tetrahydro-6H-pyrazolo[3,4-c]pyridin-6-yl)-5-methyl-2,3-dihydro-1,5-benzoxazepin-4(5H)-one]	97	–
O=C1Nc2ccccc2CCC1N1Cc2sc(Cc3ccccc3)nc2C1=O (centres unmarked) [Example 15, 3-(2-benzyl-4-oxo-4,6-dihydro-5H-pyrrolo[3,4-d][1,3]thiazol-5-yl)-1,3,4,5-tetrahydro-2H-1-benzazepin-2-one]	91	–
CN1C(=O)[C@@H](N2CCc3cn(Cc4cccc(S(C)(=O)=O)c4)nc3C2=O)COc2ccccc21 [Example 166, (3S)-5-methyl-3-(2-(3-(methylsulfonyl)benzyl)-7-oxo-2,4,5,7-tetrahydro-6H-pyrazolo[3,4-c]pyridin-6-yl)-2,3-dihydro-1,5-benzoxazepin-4(5H)-one]	88	–
CN1C(=O)[C@@H](N2CCc3c(nn(Cc4ccccc4)c3Cl)C2=O)COc2cc(-c3ccn(C)n3)c(F)cc21 [Example 125, (3S)-3-(2-benzyl-3-chloro-7-oxo-2,4,5,7-tetrahydro-6H-pyrazolo[3,4-c]pyridin-6-yl)-7-fluoro-5-methyl-8-(1-methyl-1H-pyrazol-3-yl)-2,3-dihydro-1,5-benzoxazepin-4(5H)-one]	101	–
CN1C(=O)[C@@H](N2CCc3c(nn(Cc4ccccc4)c3C3CC3)C2=O)COc2ccccc21 [Example 159, (3S)-3-(2-benzyl-3-cyclopropyl-7-oxo-2,4,5,7-tetrahydro-6H-pyrazolo[3,4-c]pyridin-6-yl)-5-methyl-2,3-dihydro-1,5-benzoxazepin-4(5H)-one]	100	–
Cc1c2c(nn1Cc1ccccc1)C(=O)N([C@H]1COc3ccc(C#N)cc3N(C)C1=O)CC2 [Example 85, (3S)-3-(2-benzyl-3-methyl-7-oxo-2,4,5,7-tetrahydro-6H-pyrazolo[3,4-c]pyridin-6-yl)-5-methyl-4-oxo-2,3,4,5-tetrahydro-1,5-benzoxazepine-7-carbonitrile]	101	–
CNC(=O)c1ccc2c(c1)CCC(N1CCc3c(nn(Cc4ccccc4)c3Cl)C1=O)C(=O)N2C (centres unmarked) [Example 135, 3-(2-benzyl-3-chloro-7-oxo-2,4,5,7-tetrahydro-6H-pyrazolo[3,4-c]pyridin-6-yl)-N,1-dimethyl-2-oxo-2,3,4,5-tetrahydro-1H-1-benzazepine-7-carboxamide]	101	–
CN1C(=O)C(N2CCc3c(nn(Cc4ccccc4F)c3Cl)C2=O)CCc2nn(C)cc21 (centres unmarked) [Example 119, 6-(3-chloro-2-(2-fluorobenzyl)-7-oxo-2,4,5,7-tetrahydro-6H-pyrazolo[3,4-c]pyridin-6-yl)-2,4-dimethyl-2,6,7,8-tetrahydropyrazolo[4,3-b]azepin-5(4H)-one]	97	–
CN1C(=O)[C@@H](N2CCc3ccc(Cc4ccccc4)nc3C2=O)COc2ccccc21 [Example 17, (3S)-3-(2-benzyl-8-oxo-5,8-dihydro-1,7-naphthyridin-7(6H)-yl)-5-methyl-2,3-dihydro-1,5-benzoxazepin-4(5H)-one]	97	–
CN1C(=O)C(N2CCc3c(nn(Cc4ccccc4)c3Cl)C2=O)CCc2ccncc21 (centres unmarked) [Example 95, 3-(2-benzyl-3-chloro-7-oxo-2,4,5,7-tetrahydro-6H-pyrazolo[3,4-c]pyridin-6-yl)-1-methyl-1,3,4,5-tetrahydro-2H-pyrido[3,4-b]azepin-2-one]	–	101
CN1C(=O)[C@@H](N2CCc3cn(Cc4ccccc4Cl)nc3C2=O)COc2ccccc21 [Example 25, (3S)-3-(2-(2-ohlorobenzy)-7-oxo-2,4,5,7-tetrahydro-6H-pyrazolo[3,4-c]pyridin-6-yl)-5-methyl-2,3-dihydro-1,5-benzoxazepin-4(5H)-one]	100	–
Cc1c2c(nn1Cc1ccccc1F)C(=O)N([C@H]1COc3cc(Br)ccc3N(C)C1=O)CC2 [Example 109, (3S)-8-bromo-3-(2-(2-fluorobenzyl)-3-methyl-7-oxo-2,4,5,7-tetrahydro-6H-pyrazolo[3,4-c]pyridin-6-yl)-5-methyl-2,3-dihydro-1,5-benzoxazepin-4(5H)-one]	100	–
CN1C(=O)[C@@H](N2CCc3cn(Cc4ccn(C)n4)nc3C2=O)COc2ccccc21 [Example 39, (3S)-5-methyl-3-(2-((1-methyl-1H-pyrazol-3-yl)methyl)-7-oxo-2,4,5,7-tetrahydro-6H-pyrazolo[3,4-c]pyridin-6-yl)-2-,3-dihydro-1,5-benzoxazepin-4(5H)-one]	92	–
CN1C(=O)[C@@H](N2CCc3cn(Cc4ccccc4)nc3C2=O)COc2ccccc21 [Example 1, (3S)-3-(2-benzyl-7-oxo-2,4,5,7-tetrahydro-6H-pyrazolo[3,4-c]pyridin-6-yl)-5-methyl-2,3-dihydro-1,5-benzoxazepin-4(5H)-one]	100	–
CN1C(=O)[C@@H](N2CCc3c(nn(Cc4ccccc4)c3Cl)C2=O)COc2ccc(C(N)=O)cc21 [Example 81, (3S)-3-(2-benzyl-3-chloro-7-oxo-2,4,5,7-tetrahydro-6H-pyrazolo[3,4-c]pyridin-6-yl)-5-methyl-4-oxo-2,3,4,5-tetrahydro-1,5-benzoxazepine-7-carboxamide]	101	–
CN1C[C@H](N2CCc3cn(Cc4ccccc4)nc3C2=O)C(=O)N(C)c2ccccc21 [Example 151, (3S)-3-(2-benzyl-7-oxo-2,4,5,7-tetrahydro-6H-pyrazolo[3,4-c]pyridin-6-yl)-1,5-dimethyl-1,3,4,5-tetrahydro-2H-1,5-benzodiazepin-2-one]	98	–
CNC(=O)c1ccc2c(c1)OC[C@H](N1CCc3cn(Cc4c(F)cccc4F)nc3C1=O)C(=O)N2C [Example 116, (3S)-3-(2-(2,6-difluorobenzyl)-7-oxo-2,4,5,7-tetrahydro-6H-pyrazolo[3,4-c]pyridin-6-yl)-N,5-dimethyl-4-oxo-2,3,4,5-tetrahydro-1,5-benzoxazepine-8-carboxamide]	101	–
CN1C(=O)C(N2CCc3c(nn(Cc4ccccc4)c3Cl)C2=O)CCc2cn(C)nc21 (centres unmarked) [Example 111, 6-(2-benzyl-3-chloro-7-oxo-2,4,5,7-tetrahydro-6H-pyrazolo[3,4-c]pyridin-6-yl)-2,8-dimethyl-2,5,6,8-tetrahydropyrazolo[3,4-b]azepin-7(4H)-one]	–	99
